Experimental data reported in patent US7981912B2, “Indole acetic acids exhibiting CRTH2 receptor antagonism and uses thereof” (Wyeth LLC, priority 2004, dated 2011).

Columns and labels:
[1] = target: T1, human CRTH2 (Homo sapiens, UniProt Q9Y5Y4); experiment: CRTH2 fluorescent imaging assay (intracellular calcium, antagonist mode); format: cell-based; set-up: expressed in transfected cells; host or cells: HT1080-hCRTH2; settings: HT1080-hCRTH2 cells; block of calcium increase caused by 500 nM PGD2
T1 sequence (Q9Y5Y4 1-395): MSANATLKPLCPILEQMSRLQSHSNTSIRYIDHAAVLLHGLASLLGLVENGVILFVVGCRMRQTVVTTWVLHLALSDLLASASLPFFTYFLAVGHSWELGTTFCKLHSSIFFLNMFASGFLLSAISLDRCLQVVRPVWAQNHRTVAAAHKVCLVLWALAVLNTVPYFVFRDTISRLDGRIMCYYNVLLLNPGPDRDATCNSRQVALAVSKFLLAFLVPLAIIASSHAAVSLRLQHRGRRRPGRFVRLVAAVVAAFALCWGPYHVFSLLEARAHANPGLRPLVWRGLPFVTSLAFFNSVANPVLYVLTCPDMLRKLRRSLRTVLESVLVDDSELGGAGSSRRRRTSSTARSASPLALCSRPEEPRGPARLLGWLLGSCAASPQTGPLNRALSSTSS
Method: The ability of the disclosed compounds to act as agonists for the hCRTH2 receptor was determined by their ability to cause increases in intracellular calcium via binding to the CRTH2 receptor.
Assays were performed on HEK 293EBNA-hCRTH2 cells that had been grown in DMEM media containing 10% FBS, […] puromycin and 1% penicillin/streptomycin/glutamine (PSG) at 37° C. in 5% CO2 or on HT1080-hCRTH2 cells (a HT1080 cell line stably expressing human CRTH2) that had been grown in alphaMEM media containing 10% FBS, 500 μg/ml hygromycin, 200 nM methotrexate and 1% PSG at 37° C. in 5% CO2.
For the assay, HEK 293EBNA-hCRTH2 cells or HT1080-hCRTH2 cells were grown to approximately 90% confluency and then dislodged from the plate with Trypsin-EDTA, resuspended in DMEM media, seeded in 384 well plates at 2×10^4 cells per well and incubated overnight at 37° C. The cells were loaded with a calcium sensing dye by removing the growth media and replacing it with 30 μL of dye loading Ringer's buffer (136 mM […], 5.4 mM D-Glucose, 20 mM Hepes pH 7.4, 2.1 mM MgCl2, 0.8 mM CaCl2, 0.2% BSA with 1× Calcium3Dye (Molecular Devices) and 2.5 mM Probenecid (Sigma)) per well. The cells were incubated at 37° C. for 1 hour to allow the dye to enter the cells. Compounds were serially diluted in DMSO and then diluted to 4× their final concentration with Ringer's buffer. The compounds were added to a 384 well plate in quadruplicate. In addition to test compounds, several wells contained Ringer's buffer with DMSO. These wells serve as control wells. 10 μL was transferred from compound/control plate to the plate containing cells loaded with dye by a fluorescent imaging plate reader (Molecular Devices). The fluorescence was measured every 4 seconds for 4 minutes. These measurements indicated the level of intracellular calcium. Increases in fluorescence relative to wells containing buffer only indicated an agonist effect of the compound. Measurement at various compound concentrations allowed one to determine the EC50 for these compounds. Following the 4 minute incubation with compound, 20 μL of Ringer's buffer with either 10 nM or 500 nM PGD2 (approximate EC75 for PGD2 in HEK 293EBNA-hCRTH2 cells and HT1080-hCRTH2 cells, respectively) was added to the wells. Inhibition by the compounds of the calcium response due to antagonism of PGD2 action on CRTH2 is reflected by a decrease in fluorescent signal relative to wells containing no compound. The fluorescence was measured every 2 seconds for 10 seconds before addition of PGD2 and every 2 seconds for 110 seconds following addition. Measurement at various compound concentrations allowed one to determine the IC50 for these compounds. EC50 and IC50 values were determined from the experimental results by nonlinear regression using the Prism 4.0 software.

[2] = target: T1, human CRTH2; experiment: CRTH-2 binding assay (scintillation proximity assay, inhibition of 3H-PGD2 binding); set-up: expressed in transfected cells; host or cells: HEK 293EBNA-hCRTH2 (membrane preparation); settings: inhibition of 3H-PGD2 (3.6 nM) binding to HEK 293EBNA-hCRTH2 membranes; Ki calculated from IC50
How it was run: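 Membranes from HEK 293EBNA cells stably expressing human CRTH2 (~20 μg protein/100 μL) with SPA beads and 3.6 nM 3H-PGD2 in 10 mM Hepes pH 7.4, 1 mM EDTA, 10 mM MnCl2, glycerol, 2 h at room temperature, seven compound concentrations in triplicate. Nonspecific binding defined with indomethacin; IC50 converted to Ki using Kd and radioligand concentration.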

Row | Compound | IC50 [1] [nM] | Ki [2] [nM]
1 | Cc1c(-c2nn(Cc3ccc(F)cc3)c(=O)c3ccccc23)c2cc(Cl)ccc2n1CC(=O)O [Example 24, {5-Chloro-3-[3-(4-fluoro-benzyl)-4-oxo-3,4-dihydro-phthalazin-1-yl]-2-methyl-indol-1-yl}-acetic acid] | 60 | < 100
2 | Cc1c(C2=NN(Cc3ccc(OC(F)(F)F)cc3)S(=O)(=O)c3ccccc32)c2cc(F)ccc2n1CC(=O)O [Example 84, {3-[2-(4-Trifluoromethoxy-benzyl)-1,1-dioxo-1,2-dihydro-1λ^6-benzo[e][1,2,3]thiadiazin-4-yl]-5-fluoro-2-methyl-indol-1-yl}-acetic acid] | – | < 1000
3 | Cc1c(C2=NN(Cc3cccc(C(F)(F)F)c3)S(=O)(=O)c3ccccc32)c2cc(F)ccc2n1CC(=O)O [Example 85, {3-[2-(3-Trifluoromethyl-benzyl)-1,1-dioxo-1,2-dihydro-1λ^6-benzo[e][1,2,3]thiadiazin-4-yl]-5-fluoro-2-methyl-indol-1-yl}-acetic acid] | – | < 1000
4 | Cc1c(C2=NN(CCOc3ccc(Cl)cc3)S(=O)(=O)c3ccccc32)c2cc(F)ccc2n1CC(=O)O [Example 89, (3-{2-[2-(4-Chloro-phenoxy)-ethyl]-1,1-dioxo-1,2-dihydro-1λ^6-benzo[e][1,2,3]thiadiazin-4-yl}-5-fluoro-2-methyl-indol-1-yl)-acetic acid] | – | < 1000
5 | CCN1N=C(c2c(C)n(CC(=O)O)c3ccc(F)cc23)c2ccccc2S1(=O)=O [Example 91, [3-(2-Ethyl-1,1-dioxo-1,2-dihydro-1λ^6-benzo[e][1,2,3]thiadiazin-4-yl)-5-fluoro-2-methyl-indol-1-yl]-acetic acid] | – | < 100
6 | CCCN1N=C(c2c(C)n(CC(=O)O)c3ccc(F)cc23)c2ccccc2S1(=O)=O [Example 92, [3-(2-Propyl-1,1-dioxo-1,2-dihydro-1λ^6-benzo[e][1,2,3]thiadiazin-4-yl)-5-fluoro-2-methyl-indol-1-yl]-acetic acid] | – | < 100
7 | Cc1c(C2=NN(C(C)C)S(=O)(=O)c3ccccc32)c2cc(F)ccc2n1CC(=O)O [Example 93, [3-(2-Isopropyl-1,1-dioxo-1,2-dihydro-1λ^6-benzo[e][1,2,3]thiadiazin-4-yl)-5-fluoro-2-methyl-indol-1-yl]-acetic acid] | – | < 100
8 | Cc1c(C2=NN(C3CCCCC3)S(=O)(=O)c3ccccc32)c2cc(F)ccc2n1CC(=O)O [Example 94, [3-(2-Cyclohexyl-1,1-dioxo-1,2-dihydro-1λ^6-benzo[e][1,2,3]thiadiazin-4-yl)-5-fluoro-2-methyl-indol-1-yl]-acetic acid] | – | < 100

Other lines, results leading:

Row | IC50 [1] [nM] | Ki [2] [nM] | Compound
9 | 19 | < 100 | Cc1c(-c2nn(Cc3ccccc3)c(=O)c3ccccc23)c2cc(Cl)ccc2n1CC(=O)O [Example 16, [3-(3-Benzyl-4-oxo-3,4-dihydro-phthalazin-1-yl)-5-chloro-2-methyl-indol-1-yl]-acetic acid]
10 | 170 | < 100 | Cc1onc(-c2ccccc2)c1CN1C(c2c(C)n(CC(=O)O)c3ccc(Cl)cc23)c2ccccc2S1(=O)=O (stereo not shown) [Example 61, {5-Chloro-2-methyl-3-[2-(5-methyl-3-phenyl-isoxazol-4-ylmethyl)-1,1-dioxo-2,3-dihydro-1H-1λ^6-benzo[d]isothiazol-3-yl]-indol-1-yl}-acetic acid]
11 | 22 | < 100 | Cc1noc(C)c1CN1C(c2c(C)n(CC(=O)O)c3ccccc23)c2ccc(F)cc2S1(=O)=O (stereo not shown) [Example 62, {3-[2-(3,5-Dimethyl-isoxazol-4-ylmethyl)-6-fluoro-1,1-dioxo-2,3-dihydro-1H-1λ^6-benzo[d]isothiazol-3-yl]-2-methyl-indol-1-yl}-acetic acid]
12 | – | < 100 | Cc1c(C2=NN(C(C)c3ccccc3)S(=O)(=O)c3ccccc32)c2cc(F)ccc2n1CC(=O)O (stereo not shown) [Example 86, {3-[2-(1-phenyl-ethyl)-1,1-dioxo-1,2-dihydro-1λ^6-benzo[e][1,2,3]thiadiazin-4-yl]-5-fluoro-2-methyl-indol-1-yl}-acetic acid]
13 | – | < 1000 | Cc1c(C2=NN(CCc3ccccc3)S(=O)(=O)c3ccccc32)c2cc(F)ccc2n1CC(=O)O [Example 87, {3-[2-phenethyl-1,1-dioxo-1,2-dihydro-1λ^6-benzo[e][1,2,3]thiadiazin-4-yl]-5-fluoro-2-methyl-indol-1-yl}-acetic acid]
14 | – | < 1000 | Cc1c(C2=NN(CCOc3ccccc3)S(=O)(=O)c3ccccc32)c2cc(F)ccc2n1CC(=O)O [Example 88, {3-[2-(2-Phenoxy-ethyl)-1,1-dioxo-1,2-dihydro-1λ^6-benzo[e][1,2,3]thiadiazin-4-yl]-5-fluoro-2-methyl-indol-1-yl}-acetic acid]
15 | – | < 100 | Cc1noc(C)c1CN1N=C(c2c(C)n(CC(=O)O)c3ccc(F)cc23)c2ccccc2S1(=O)=O [Example 90, {3-[2-(3,5-Dimethyl-isoxazol-4-ylmethyl)-1,1-dioxo-1,2-dihydro-1λ^6-benzo[e][1,2,3]thiadiazin-4-yl]-5-fluoro-2-methyl-indol-1-yl}-acetic acid]
